Reference: the supplement of paper PMC10307832

Experiments:
Experiment in all cases: relative viability (nuclei count vs DMSO), 5 days (fraction); higher = more cells survive
[1] = compound: C1=CC2=NC=CN=C2C=C1/C=C/3\C(=O)NC(=O)S3 + CCNC(=O)c1noc(-c2cc(C(C)C)c(O)cc2O)c1-c1ccc(CN2CCOCC2)cc1 [Luminespib] (partner 0.01 µM)
In short: (§1)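 Relative viability equals treated-well nuclei counts divided by vehicle-well nuclei counts. Counts came from 4× images of lung cancer cell lines grown in 1536-well plates for 5 days after pin-tool dosing on the day after seeding. Dosing used one drug alone or a fixed anchor-drug dose plus five library-drug doses (not always all listed) in √10 steps, and values are medians of duplicate plates.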

BGJ398 + AZD7762 = compound: CCN1CCN(c2ccc(Nc3cc(N(C)C(=O)Nc4c(Cl)c(OC)cc(OC)c4Cl)ncn3)cc2)CC1 [BGJ398] + NC(=O)Nc1cc(-c2cccc(F)c2)sc1C(=O)N[C@H]1CCCNC1 [AZD7762] (partner 0.2 µM)
In short: as §1

BGJ398 + OSI-027 = compound: CCN1CCN(c2ccc(Nc3cc(N(C)C(=O)Nc4c(Cl)c(OC)cc(OC)c4Cl)ncn3)cc2)CC1 [BGJ398] + COc1cccc2cc(-c3nc([C@H]4CC[C@H](C(=O)O)CC4)n4ncnc(N)c34)[nH]c12 [OSI-027] (partner 0.5 µM)
In short: as §1

[2] = compound: C1=CC2=NC=CN=C2C=C1/C=C/3\C(=O)NC(=O)S3 + CS(=O)(=O)N1CCN(Cc2cc3nc(-c4cccc5[nH]ncc45)nc(N4CCOCC4)c3s2)CC1 [Pictilisib] (partner 1 µM)
In short: as §1

Cell Line | relative viability ([1]; first compound 0.02 µM) | relative viability ([1]; first compound 0.06325 µM) | relative viability ([1]; first compound 0.2 µM) | relative viability ([1]; first compound 0.6325 µM) | relative viability ([1]; first compound 2 µM) | relative viability (BGJ398 + AZD7762; first compound 0.01 µM) | relative viability (BGJ398 + AZD7762; first compound 0.03162 µM) | relative viability (BGJ398 + AZD7762; first compound 0.1 µM) | relative viability (BGJ398 + AZD7762; first compound 0.3162 µM) | relative viability (BGJ398 + AZD7762; first compound 1 µM) | relative viability (BGJ398 + OSI-027; first compound 0.01 µM) | relative viability (BGJ398 + OSI-027; first compound 0.03162 µM) | relative viability (BGJ398 + OSI-027; first compound 0.1 µM) | relative viability (BGJ398 + OSI-027; first compound 0.3162 µM) | relative viability (BGJ398 + OSI-027; first compound 1 µM) | relative viability ([2]; first compound 0.02 µM) | relative viability ([2]; first compound 0.06325 µM) | relative viability ([2]; first compound 0.2 µM) | relative viability ([2]; first compound 0.6325 µM) | relative viability ([2]; first compound 2 µM)
201T | 1.04 | 1.04 | 1.04 | 1.02 | 0.986 | 0.657 | 0.595 | 0.63 | 0.521 | 0.747 | 0.781 | 0.825 | 0.793 | 0.636 | 0.564 | 0.606 | 0.799 | 0.712 | 0.666 | 0.573
A549 | – | – | – | – | – | – | – | – | – | – | – | – | – | – | – | 0.518 | 0.646 | 0.453 | 0.555 | 0.464
A-427 | 0.978 | 0.958 | 1 | 0.842 | 0.991 | 0.688 | 0.685 | 0.599 | 0.43 | 0.565 | 0.375 | 0.365 | 0.309 | 0.235 | 0.285 | 0.711 | 0.685 | 0.788 | 0.675 | 0.679
ABC-1 | – | 0.872 | 0.616 | 0.519 | 0.982 | 0.713 | 0.964 | 0.898 | 0.572 | 1.13 | 0.435 | 0.505 | 0.442 | 0.403 | 0.408 | 0.676 | 0.67 | 0.721 | 0.673 | 0.576
BEN | 0.631 | 0.19 | 0.402 | 0.332 | 0.314 | 0.729 | 0.648 | 0.687 | 0.583 | 0.578 | 0.319 | 0.259 | 0.279 | 0.266 | 0.276 | 0.54 | 0.622 | 0.613 | 0.496 | 0.556
CAL-12T | 0.456 | 0.417 | 0.686 | 0.623 | 0.234 | 0.656 | 0.664 | 0.698 | 0.636 | 0.625 | 0.539 | 0.773 | 0.83 | 0.673 | 0.491 | 0.341 | 0.444 | 0.716 | 0.39 | 0.64
COR-L23 | 0.684 | 0.842 | 0.77 | 0.581 | 0.652 | – | – | – | – | – | 0.787 | 0.88 | 0.848 | 0.667 | 0.8 | 0.784 | 1.01 | 0.78 | 0.717 | 0.453
COR-L 105 | 0.727 | 0.997 | 0.816 | 0.695 | 0.618 | – | – | – | – | – | 0.644 | 0.441 | 0.704 | 0.519 | 0.654 | 0.396 | 0.435 | 0.377 | 0.398 | 0.337
Calu-6 | – | – | – | – | – | – | – | – | – | – | – | – | – | – | – | 0.923 | 1.15 | 1.04 | 0.989 | 0.973
ChaGo-K-1 | 0.553 | 0.454 | 0.762 | 0.541 | 0.572 | 0.904 | 0.85 | 0.903 | 0.898 | 0.881 | 0.512 | 0.491 | 0.567 | 0.548 | 0.435 | 0.886 | 1.26 | 1.07 | 0.665 | 0.621
EBC-1 | – | – | – | – | – | – | – | – | – | – | – | – | – | – | – | 0.407 | 0.518 | 0.42 | 0.413 | 0.459
EKVX | 0.846 | 0.636 | 0.831 | 0.839 | 0.776 | 0.778 | 0.772 | 0.746 | 0.686 | 0.634 | 0.628 | 0.679 | 0.72 | 0.703 | 0.69 | 0.355 | 0.384 | 0.42 | 0.422 | 0.375
EMC-BAC-2 | 1.13 | 1.22 | 1.17 | 1.09 | 1.02 | 1.09 | 1.18 | 1.14 | 1.12 | 1.04 | 0.357 | 0.417 | 0.398 | 0.333 | 0.37 | 0.431 | 0.552 | 0.563 | 0.482 | 0.463
EPLC-272H | 0.447 | 0.214 | 0.328 | 0.267 | 0.198 | 0.209 | 0.21 | 0.252 | 0.174 | 0.306 | 0.283 | 0.279 | 0.248 | 0.241 | 0.293 | 0.411 | 0.407 | 0.364 | 0.297 | 0.153
H3255 | 0.879 | 0.793 | 0.909 | 0.857 | 0.809 | 0.837 | 0.681 | 1.01 | 0.78 | 0.826 | 0.493 | – | 0.676 | 0.37 | 0.602 | 0.537 | 0.55 | 0.464 | 0.503 | 0.426
HARA | 0.811 | 0.643 | 0.706 | 0.742 | 0.797 | 0.429 | 0.418 | 0.461 | 0.373 | 0.334 | 0.422 | 0.32 | 0.506 | 0.358 | 0.439 | 0.44 | 0.485 | 0.365 | 0.348 | 0.31
HCC-15 | 0.278 | 0.197 | 0.271 | 0.304 | 0.214 | 1.15 | 1.06 | 1.24 | 1.17 | 1.39 | 0.689 | 0.72 | 0.693 | 0.675 | 0.554 | 0.765 | 0.787 | 0.86 | 0.665 | 0.754
HCC-44 | 1 | 0.829 | 1.06 | 1.04 | 0.868 | 0.98 | 1 | 1.01 | 1.02 | 0.862 | 0.6 | 0.591 | 0.598 | 0.51 | 0.473 | 0.615 | 0.563 | 0.593 | 0.552 | 0.514
HCC-78 | – | – | – | – | – | 0.609 | 0.536 | 0.557 | 0.61 | 0.608 | 0.369 | 0.348 | 0.346 | 0.349 | 0.366 | 0.267 | 0.202 | 0.246 | 0.206 | 0.169
